In experiment [1] the test system is in vitro FOXC1+ cancer model. Conditions: concurrent treatment with Wnt signaling inhibition; Ray et al., 2015b; cited from earlier work.
A further experiment has as its system ER+ breast cancer. Conditions: Kornblum et al., 2018; cited from earlier work.
Experiment [2] deals with TNBC. Conditions: two separate Phase II trials (Jovanovic et al., 2017; Park et al., 2018); cited from earlier work.
The subject of the next experiment is leukemia stem cells. Conditions: Fukushima et al., 2016; cited from earlier work.
Another experiment deals with GLI2. Conditions: abrogates leukemia stem cell dormancy; Sadarangani et al., 2015; cited from earlier work.
In experiment [3] the test system is TNBC. To be noted: Raninga et al., 2020; cited from earlier work.
The subject of another experiment is TGFβ1. To be noted: through a GLI2 inhibitory mechanism; Didiasova et al., 2017; cited from earlier work.
The test system of experiment [4] is fibroblast activation and tumor-fibroblast crosstalk. Conditions: Fujiwara et al., 2020; cited from earlier work.
For experiment [5], the system named is cancer-associated fibroblasts. To be noted: Aboulkheyr Es et al., 2020; cited from earlier work.
The subject of experiment [6] is lung, liver and colon cancer. Conditions: combination; Qin et al., 2020; cited from earlier work.
Experiment [7] deals with CXCR4-mediated invasion and metastasis. Conditions: Pan et al., 2018; cited from earlier work.
The subject of the next experiment is prostate cancer. Conditions: Gravina et al., 2015; cited from earlier work.
In experiment [8] the test system is cancer stem cells in AML and glioblastoma. Conditions: Hira et al., 2020; cited from earlier work.
Another experiment relates to breast cancer. To be noted: Ginestier et al., 2010; cited from earlier work.
For another experiment, the system named is gastric cancer. Conditions: Wang et al., 2016b; cited from earlier work.
Experiment [9] concerns HER2-positive breast cancer. Conditions: Singh et al., 2013, cited from earlier work.
In experiment [10] the test system is breast CSC count in preoperative tumors. Conditions: Goldstein et al., 2020; cited from earlier work.
The subject of another experiment is TNBC cells. To be noted: cited from earlier work.
For experiment [11], the system named is ER and or PR-positive cells. To be noted: Wang et al., 2015; cited from earlier work.
Another experiment relates to binding of SOX9 to FOXC1. Conditions: Tang et al., 2020; cited from earlier work.
Experiment [12] relates to ER+LN-breast cancer patients. The experiment can be described thus: Adjuvant chemotherapy added to adjuvant Tamoxifen, all-cause mortality (SCAN-B dataset). Type of experiment: in vivo, human. Conditions: FOXC1 greater than 60th percentile or VERESCA FOXC1 IHC Score of 2; adjuvant Tamoxifen X 5 years with or without adjuvant chemotherapy. The source says: The prognostic utility of the VERESCA® FOXC1 IHC assay and the VERESCA® FOXC1Clin Criteria recurrence risk score was additionally validated in a second independent clinical trial dataset (SCAN-B) comprising 3207 breast cancer patients for whom clinical, treatment, gene expression data and outcomes data (Overall Survival) were available.
FOXC1 expression cutoff value was 60th percentile of expression of FOXC1 mRNA on qRTPCR, 60th percentile of expression of FOXC1 mRNA on RNA-Seq, or FOXC1 Score of 2 using VERESCA® FOXC1 IHC kit. FOXC1 expression less than the 60th percentile (FOXC1<60TH % ILE) by mRNA EXPRESSION or <VERESCA® FOXC1 IHC Score of 2 predicts LOW RISK and efficacy of the current standard of care which is adjuvant Tamoxifen X 5 years) in successfully reducing disease recurrence risk, and its resultant impact on all-cause mortality, without the need for additional/adjuvant chemotherapy.
The ability of the VERESCA® FOXC1Clin criteria recurrence risk score to predict a statistically significant decrease in all-cause mortality rate in the 8-year period post-diagnosis in response to having received adjuvant chemotherapy in addition to adjuvant Tamoxifen therapy was validated in SCAN-B clinical trial dataset (Odds Ratio 6.477 [Cl 2.974-14.107], p=0.0000001).

The test system of a further experiment is TNBC patients. Nature of the experiment: I-SPY2 neoadjuvant Durvalumab arm, pathologic complete response by MK167+FOXC1 predictor. Type of experiment: in vivo, human. To be noted: Durvalumab Arm: Olaparib+Paclitaxel+Durvalumab. On the procedure:
(§1) Methods. 41 Pre-NACT tumor biopsy MK167 and FOXC1 mRNA expression values were retrospectively obtained from TNBC patients and HER2 negative ER+ breast cancer patients who had been enrolled and treated in the I-SPY2 clinical trial (Durvalumab arm: 21, Control arm: 20) and correlated with the rate of observed pathologic complete response (pCR). The area under the curve (AUC) of each model was calculated and used to determine suitable cutoff values to maximize Negative Predictive Value (NPV) and Sensitivity for pCR prediction.
Methods. 41 Pre-NACT tumor biopsy MK167 and FOXC1 mRNA expression values were retrospectively obtained from TNBC patients who had been enrolled and treated in the I-SPY2 clinical trial (Durvalumab arm: 21, Control arm: 20) and correlated with the rate of observed pathologic complete response (pCR). The area under the curve (AUC) of each model was calculated and used to determine suitable cutoff values to maximize Negative Predictive Value (NPV) and Sensitivity for pCR prediction.

The subject of experiment [13] is HER2 negative ER+ breast cancer patients. The description is as above. Type of experiment: in vivo, human. To be noted: FIG. 16. On the procedure:
as §1

This is an account of results in patent US20250283178A1, “FOXC1 EXPRESSION AS A COMPLEMENTARY DIAGNOSTIC ASSAY FOR PREDICTING EFFICACY OF ONCOLOGY DRUGS AND DRUG COMBINATION REGIMENS AND METHODS FOR USE” (3N DIAGNOSTICS LTD., priority 2022, published 2025).

`CC(C)C[C@H](NC(=O)[C@H](Cc1ccccc1)NC(=O)c1cnccn1)B(O)O` [Bortezomib]: the “emergence of resistant clones / cancer stem cell escape” value in experiment [1] is on record as “prevented the emergence of such resistant clones”.
Consider `CO[C@H]1C[C@@H]2CC[C@@H](C)[C@@](O)(O2)C(=O)C(=O)N2CCCC[C@H]2C(=O)O[C@H]([C@H](C)C[C@@H]2CC[C@@H](OCCO)[C@H](OC)C2)CC(=O)[C@H](C)/C=C(\C)[C@@H](O)[C@@H](OC)C(=O)[C@H](C)C[C@H](C)/C=C/C=C/C=C/1C` [Everolimus], for which the progression free survival result in the experiment with ER+ breast cancer is given as “prolong progression free survival”. Moreover, the efficacy result in the experiment with TNBC [2] is “failed to show any demonstrable efficacy”.
Turning to `CN1CC[C@@H](NC(=O)Nc2ccc(C#N)cc2)C[C@@H]1c1nc2ccccc2[nH]1` [Glasdegib], the “targeting of leukemia stem cells” value in the experiment on leukemia stem cells is on record as “successfully target leukemia stem cells”. Moreover, in the experiment on GLI2, the “downstream effect on GLI2” value is recorded as “GLI2 inhibition”.
Regarding `C[C@@]12OC(=O)[C@]1([C@@H](O)[C@@H]1C=CCCC1)NC(=O)[C@@H]2CCCl` [Marizomib], in the experiment with TNBC [3], the “development of lung and brain metastasis” value is “significantly reduced the development of lung and brain metastasis”; the tumor growth result is “marked decline in tumor growth”.
Consider `Cc1ccc(=O)n(-c2ccccc2)c1` [Pirfenidone], for which the “fibrosis / TGFβ1” value with TGFβ1 was “decrease fibrosis by decreasing TGFβ1”. In addition, the “fibroblast activation and tumor-fibroblast crosstalk in the TME” value in experiment [4] is “capable of inhibiting fibroblast activation and tumor-fibroblast crosstalk”. In addition, the “immunosuppressive capacity of cancer-associated fibroblasts” value in experiment [5] was “successful in reducing immunosuppressive capacity”. In addition, the “therapeutic benefit of PD1/PDL1 immune checkpoint blockade” value in experiment [6] is recorded as “augment the observed therapeutic benefit”.
With `c1cc(CN2CCCNCCNCCCNCC2)ccc1CN1CCCNCCNCCCNCC1` [Plerixafor], the “CXCR4-mediated invasion and metastasis” value in experiment [7] was “successful in reversing the CXCR4-mediated invasion and metastasis”. Also, the “incidence of bone metastasis” value with prostate cancer was “successfully reduce the incidence of bone metastasis”. Besides, in [8], the “mobilization of cancer stem cells from their niche” value was “mobilize cancer stem cells from their niche”.
On to `CC(C)Cc1ccc([C@@H](C)C(=O)NS(C)(=O)=O)cc1` [Repartaxin], for which the therapeutic efficacy result in the experiment with breast cancer and in the experiment with gastric cancer was “therapeutic efficacy” in each case. Also, the “breast CSC activity” value in [9] is “successfully reduced breast CSC activity”. Moreover, the “therapeutic efficacy in combination” value in [9] (combined with Lapatinib) is “enhanced therapeutic efficacy when combined with Lapatinib”. The “decrease in breast CSC count” value in experiment [10] is recorded as “more than 20%”.
With `CN(C)C/C=C/C(=O)Nc1ccc(C(=O)Nc2cccc(Nc3ncc(Cl)c(-c4c[nH]c5ccccc45)n3)c2)cc1` [THZ1], the “sensitivity of cell proliferation” value with TNBC cells (CDK7 inhibitor, Wang et al., 2015) is listed as “selectively sensitive”. The apoptotic cell death result with TNBC cells (Tang et al., 2020) is recorded as “increasing apoptotic cell death”. Further, the “effect of treatment on cells” value in [11] is “largely unaffected”. Moreover, in the experiment on binding of SOX9 to FOXC1, the “binding of SOX9 to FOXC1 and enhancer/SE-associated transcription factors” value is given as “significantly disrupted”.
As to `CC/C(=C(\c1ccccc1)c1ccc(OCCN(C)C)cc1)c1ccccc1` [Tamoxifen], the “risk of death (all-cause mortality)” value in experiment [12] is recorded as “greater than 24%”.
For the molecule Durvalumab, the pCR rate in the experiment with TNBC patients (predicted non-responders (MK167+FOXC1 mRNA)) was 0%; in the experiment on TNBC patients (predicted responders (MK167+FOXC1 mRNA)), 75%; in experiment [13] (predicted non-responders) it was 15.38%. In experiment [13] (predicted responders), the “pCR I rate” value was 38.1%. Besides, the “pCR II rate” value in experiment [13] (predicted responders) was 62.5%.
